Measured values as given in patent US20170209574A1, “COMBINATION THERAPIES” (Novartis AG, priority 2014, published 2017).

Experiments:
[1] = tested on: ALK-positive NSCLC patients; experiment: Clinical study of LDK378 in ALK-positive NSCLC patients; assay type: in vivo, human; details: 750 mg; 53.3% of the patients censored
[2] = tested on: PD-L1 (CD274); experiment: TaqMan RT PCR of PD-L1 mRNA in H3122 cells in vitro; assay type: cell-based, human; details: H3122 (NSCLC with ALK translocation) in vitro; FIG. 3
Method: (§1) TaqMan RT PCR assays were developed to detect changes of expression levels of PD-L1 (CD274) in cell lines and xenograft tumors. mRNA was isolated from frozen cell pellets or tumor fragments using the Qiagen RNeasy Mini kit. Isolated RNA was frozen at −80° C. RNA quality was checked and RNA was quantified using a 2100 Agilent Bioanalyzer following the protocol for the Agilent RNA 6000 Nano Kit. cDNA was prepared using a High Capacity RNA- to cDNA Kit (Applied Biosystems).
(§2) Real-time PCR reactions were carried out in 20 μl total volume, including 10 μl of Universal PCR master mix (Applied Biosystems), 1 μl of human PD-L1 (CD274) probe/primer set (Applied Biosystems), and 8 μl of cDNA. Each sample was run in triplicate. The amount of cDNA produced from 25-50 ng of RNA in the reverse transcription reaction was used in each PCR reaction. Due to difference in mRNA levels between PD-L1 and GAPDH, the two real-time PCR reactions were done in separate tubes using same amount of cDNA. The real-time PCR reaction was run on the C1000 Thermal Cycle (BioRad) with the cycle program as follows: a 10 minute incubation at 95° C. followed by 40 cycles of 95° C. for 15 seconds and 60° C. for 1 minute. After the reaction was complete, the PD-L1 average Ct was normalized relative to each Ct value from the GAPDH reference reaction. Each normalized logarithmic value was then converted into a linear value.

[3] = tested on: PD-L1 (CD274); experiment: Flow cytometry of PD-L1 surface expression in EBC-1 cells treated with INC280; assay type: cell-based, human; details: EBC-1 cells (NSCLC with cMET amplification), in vitro; INC280 10, 100, 1000 nM for 24, 48, 72 hours; FIG. 1
Method: PD-L1 (CD274) expression was analyzed in cancer cell lines treated with INC280. Cells were obtained from ATCC and cultured in vitro following ATCC directions. The cell lines used were previously characterized by the Cancer Cell Line Encyclopedia Project (www.broadinstitute.org/ccle/home).
Cells plated in six-well culture plates were treated with the INC280 at different concentrations (10 nM, 100 nM, and 1000 nM) for 24, 48 and 72 hours. Equal amount of vehicle (DMSO) was used as a control. Cells were washed with PBS and then harvested using a cell scraper.
For each reaction, 0.5-1×10^6 cells were stained with 200 μL of anti-human monoclonal PD-L1-PE antibody, clone M1H1 (BD) for 30-60 minutes at 4° C. Cells were washed twice and data was acquired using a Canto II with FACSDiva software (BD Bioscience). Data analysis was performed using FlowJo software (Tree Star). Mean fluorescence intensity (MFI) was determined by gating on single cells. Unstained cells were used as a gating control.

[4] = tested on: PD-L1 (CD274); experiment: TaqMan RT PCR of PD-L1 mRNA in Hs.746.T tumor xenograft; assay type: in vivo, human; details: Hs.746.T tumor (gastric cancer cell with cMET amplification & mutation) xenograft; FIG. 2
Method: as §1, §2

[5] = tested on: PBMCs; experiment: Cytokine analysis (Luminex) of anti-CD3 stimulated PBMCs; assay type: cell-based, human; details: suboptimal anti-CD3 0.005 ug/ml, LCL161 1, 50, 100 or 1000 nM, day 5 supernatants
Method: Blood was obtained from normal healthy donors. Peripheral blood mononuclear cells (PBMCs) were isolated by centrifuging blood in CPT™ tubes for 18 minutes at 1800×g. Cells were washed twice with cold PBS, enumerated and then stimulated in 96-well round bottomed tissue culture plates (500,000 cells per well) for 5 days at 37° C., 5% CO2. Cells were either left untreated (DMSO control) or treated with different concentrations of LCL161 (1, 50, 100, or 1000 nM). For the cytokine analyses, cells were stimulated with a suboptimal anti-CD3 stimulus (0.005 ug/ml of soluble clone UCHT1). At day 5 post stimulation, supernatants were collected and analyzed for cytokines (Luminex).

[6] = tested on: TIM-3; experiment: CyTOF mass cytometry of PBMCs (immune checkpoint modulation); assay type: cell-based, human; details: PBMCs +/- 100 ng/mL anti-CD3, 100 nM LCL161, 4 days; monocytes, naive, memory and activated T killer cells, memory T helper cells; FIG. 9
Method: PBMCs were isolated from healthy donors via BD CPT™ vacutainer tubes. 1 million cells/mL were plated in RPMI+10% FBS+/−100 ng/mL of anti-CD3 antibody+/−DMSO or 100 nM LCL161 for 4 days. Cells were harvested, washed, stained with a panel of metal-conjugated antibodies listed below in Table 2 for analysis by CyTOF mass cytometry. Data were visualized by SPADE using Cytobank webware. SPADE and its use are described, e.g., in Peng et al., Nature Biotechnology, 29, 886-891 (2011); Sean et al, Science, 332 (6030): 687-696 (2011).
A Panel of Metal-Conjugated Antibodies for Analysis by CyTOF Mass Cytometry

[7] = tested on: human CD4+ and CD8+ T cells; experiment: CFSE proliferation analysis of anti-CD3 stimulated PBMCs (FACS); assay type: cell-based; details: 1 ug/ml soluble anti-CD3, increasing concentrations of LCL161, 5 days
Method: For the proliferation analyses, cells were labeled with 5 uM carboxyfluorescein diacetate succinimidyl ester (CFSE) before stimulation, and then treated with 1 ug/ml soluble anti-CD3. Covalently bound CFSE is divided equally between daughter cells, allowing discrimination of successive rounds of cell division and to track proliferating cells (Lyons et al., Curr Protoc Cytom. 2013; Chapter 9: Unit 9.11). PBMCs were stimulated in the presence of increasing concentrations of LCL161 (or DMSO control) for 5 days. At day 5 post stimulation, cells were harvested, stained with anti-CD4, -CD8, -PD-1, or -CD127, followed by FACS analysis. Results for one donor are shown. Similar results were obtained with PBMCs from 4 other donors.

[8] = tested on: PD-L1 (CD274); experiment: TaqMan RT PCR of PD-L1 mRNA in HEYA8 tumor xenograft model; assay type: in vivo, human; details: tumor xenograft model bearing HEYA8 (KRAS mutant ovarian cancer); FIG. 5
Method: as §1, §2

[9] = tested on: EGFR mutant (L858R, ex19del and T790M) cancer models; details: cited from earlier work
[10] = tested on: PD-L1 (CD274); experiment: TaqMan RT PCR of PD-L1 mRNA in UKE-1 tumor xenograft model; assay type: in vivo, human; details: tumor xenograft model bearing UKE-1 (MPN line with JAK2V617F mutation); FIG. 6
Method: as §1, §2

[11] = tested on: PD-L1 (CD274); experiment: TaqMan RT PCR of PD-L1 mRNA in LOXIMV1 tumor xenograft model; assay type: in vivo, human; details: tumor xenograft model bearing LOXIMV1 (BRAF mutant melanoma); FIG. 4
Method: as §1, §2

For `Cc1cc(Nc2ncc(Cl)c(Nc3ccccc3S(=O)(=O)C(C)C)n2)c(OC(C)C)cc1C1CCNCC1` [LDK378, 5-chloro-N2-(2-isopropoxy-5-methyl-4-(piperidin-4-yl)-phenyl)-N4-[2-(propane-2-sulfonyl)-phenyl]-pyrimidine-2,4-diamine], the “median progression-free survival (PFS)” value [1] was 8.21 months and the “PD-L1 mRNA” value [2] was “Inhibition of PD-L1 mRNA”.
For `CNC(=O)c1ccc(-c2cnc3ncc(Cc4ccc5ncccc5c4)n3n2)cc1F` [INC280, 2-fluoro-N-methyl-4-[7-(quinolin-6-ylmethyl)imidazo[1,2-b][1,2,4]triazin-2-yl]benzamide], the “surface expression of PD-L1 (flow cytometry)” value [3] was “significant downregulation of surface expression of PD-L1” and the “PD-L1 expression (mRNA)” value [4] was “Inhibition of PD-L1 expression (mRNA)”.
With `CN[C@@H](C)C(=O)N[C@H](C(=O)N1CCC[C@H]1c1nc(C(=O)c2ccc(F)cc2)cs1)C1CCCCC1` [LCL161, (S)—N—((S)-1-cyclohexyl-2-((S)-2-(4-(4-fluorobenzoyl)thiazol-2-yl)pyrrolidin-1-yl)-2-oxoethyl)-2-(methylamino)propanamide] the IFN-gamma production ([5]; FIG. 7A) was “increases in immune-active cytokine, IFN-gamma”, the IL-10 production ([5]; FIG. 7B) was “reduction in immune-suppressive cytokine IL-10” and the TIM-3 expression [6] was “increase in TIM-3 expression”. For the same molecule, the “proliferation of CD4+ T cells (CFSE dilution)” value ([7]; FIG. 8A) was “enhanced proliferation” and the “proliferation of CD8+ T cells (CFSE dilution)” value ([7]; FIG. 8B) was “enhanced proliferation”.
For `Cn1cnc2c(F)c(Nc3ccc(Br)cc3F)c(C(=O)NOCCO)cc21` [MEK162, 5-((4-bromo-2-fluorophenyl)amino)-4-fluoro-N-(2-hydroxyethoxy)-1-methyl-1H-benzo[d]imidazole-6-carboxamide], the “PD-L1 mRNA” value [8] was “Downregulation of PD-L1 mRNA”.
For `Cc1cc(C(=O)Nc2nc3cccc(Cl)c3n2[C@@H]2CCCCN(C(=O)/C=C/CN(C)C)C2)ccn1` [EGF816, (R,E)-N-(7-chloro-1-(1-(4-(dimethylamino)but-2-enoyl)azepan-3-yl)-1H-benzo[d]imidazol-2-yl)-2-methylisonicotinamide], the “efficacy in EGFR mutant cancer models” value ([9]; L858R, ex19del and T790M, in vitro and in vivo) is given as “significant efficacy” and the “WT EGFR inhibition” value ([9]; at clinically relevant efficacious concentrations) is given as “no indication of WT EGFR inhibition”.
For `N#CC[C@H](C1CCCC1)n1cc(-c2ncnc3[nH]ccc23)cn1` [INC424, (3R)-3-cyclopentyl-3-[4-(7H-pyrrolo-[2,3-d]pyrimidin-4-yl)-1H-pyrazol-1-yl]propanenitrile], the “PD-L1 mRNA” value [10] was “Downregulation of PD-L1 mRNA”.
For `COC(=O)N[C@@H](C)CNc1nccc(-c2cn(C(C)C)nc2-c2cc(Cl)cc(NS(C)(=O)=O)c2F)n1` [LGX818, methyl (S)-(1-((4-(3-(5-chloro-2-fluoro-3-(methylsulfonamido)phenyl)-1-isopropyl-1H-pyrazol-4-yl)pyrimidin-2-yl)amino)propan-2-yl)carbamate], the “PD-L1 mRNA” value [11] was “Downregulation of PD-L1 mRNA”.
